The values that follow come from patent US20040208924A1, “Pharmaceutical tablet having a high api content” (priority 2001, published 2004).

Series [1] can be described thus: Compactability (slope of tensile strength versus compression pressure) of API blend compressed on an Instron. Format: physicochemical. How it is done:
In order to evaluate the compressibility and compactability of all API lots generated by modifying the crystallization process, a blend of 80% API, 19.5% microcrystalline cellulose and 0.5% magnesium stearate was prepared by mixing in a tumble mixer for 5 minutes. Each mixture was then compressed on an Instron (Universal Stress-Strain Analyzer) using a 0.5 inch diameter tooling (upper and lower punches and die) at a speed of 100 mm/min at compression forces of 5, 10, 15, 20 and 25 kN each for a replicate of three tablets. The tablet dimensions were measured using a digital Vernier calliper and the strength of the tablets were determined using an Erweka hardness tester. The volume of the tablet can be calculated from the tablet dimensions normalized for the true density of the mixture being compressed. The compressibility curves are generated by plotting the solid fraction of the tablet generated at each compression pressure versus the respective compression pressure. The area under such a curve represents the extent of volume reduction. The force required to break the tablets is normalized for the area of the tablet to obtain the tensile strength value. Slopes for profiles of tensile strength versus the compression pressure represent the compactability of the material while the area under the curve of tensile strength versus the solid fraction of the tablets represents the extent of compaction or toughness of the material.

A further series relates to matrix metalloproteinase. The settings on record: statement referring to WO 97/12902 and U.S. Pat. No. 5,981,490; cited from earlier work.
Series [2] in a line: Solid state stability of crystal forms. The settings on record: out of four crystal structures (forms 4, 5, 6, 7). Format: physicochemical. From the text: Due to the unique structure of the API material at least four different groups of crystal structures were observed (forms 4, 5, 6, 7) and analyzed by single crystal x-ray. […] Orthorhombic Form 6 consisted of a group of isostructural (1:1) solvates which accommodates solvents such as EtOAc, acetone and MEK. […] An exhaustive study of API crystallization on the feasibility of various solvents, control of polymorphs, and robustness of process concluded that the selected form could be consistently produced and kept stable in iPrOAc (or BuOAc)/Heptane (or Cyclohexane), following which a reproducible crystallization procedure in the iPrOAc/heptane solvent system was developed and implemented. This procedure, associated with the aminolysis of penultimate compound (Chemical Abstracts Systematic Name, (αS)-α-(Benzoylthio)-3,4,4-trimethyl-2,5-dioxo-1-imidazolidinebutanoyl-L-leucyl-N,3-dimethyl-L-valinamide), is successful in purging undesirable side products/impurities such as α,α′-Dithiobis[N-[1-[[[2,2-dimethyl-1-[(methylamino)carbonyl]propyl]amino]-carbonyl]-3-methylbutyl]-3,4,4-trimethyl-2,5-dioxo-1-imidazolidinebutanamide] which is the S,S′-dimer of the API. The crystallization procedure is further described in Table 1.

Turning to `CNC(=O)[C@@H](NC(=O)[C@H](CC(C)C)NC(=O)[C@@H](S)CCN1C(=O)N(C)C(C)(C)C1=O)C(C)(C)C` [API, N-[(2S)-2-Mercapto-1-oxo-4-(3,4,4-trimethyl-2,5-dioxo-1-imidazolidinyl)butyl]-L-leucyl-N,3-dimethyl-L-valinamide], the product compactability in series [1] (50-g sample recrystallized using 1% AirJet-milled seeds) came to 4.2 kPa/MPa; in series [1] (50-g sample recrystallized using 1% ball-milled seeds), 5.9 Kpa/MPa; in series [1] (50-g sample recrystallized using 1% seeds crystallized from a ground seeded batch), 5.3 kPa/MPa. This molecule also returned a compactability in series [1] (crystallized with 1% ground seeds, without sonication) of 10.5 kPa/MPa. In addition, the matrix metalloproteinase inhibition result in the series on matrix metalloproteinase is given as “effective matrix metalloproteinase inhibitor”.
Consider `CNC(=O)[C@@H](NC(=O)[C@H](CC(C)C)NC(=O)[C@@H](S)CCN1C(=O)N(C)C(C)(C)C1=O)C(C)(C)C` [Form 4, N-[(2S)-2-Mercapto-1-oxo-4-(3,4,4-trimethyl-2,5-dioxo-1-imidazolidinyl)butyl]-L-leucyl-N,3-dimethyl-L-valinamide], for which the “stability of the crystal structure in the solid state” value in series [2] is listed as “did not transform/decompose to other crystalline structures in the solid state”.
